Laboratory results taken from patent US20040121946A9, “Inducing cellular immune responses to her2/neu using peptide and nucleic acid compositions” (priority 2002, published 2004).
Where no end group is shown, it is not given here.

How the values were obtained:
[1] = test system: peptide-pulsed target cells and transfected cells endogenously expressing the antigen; test: Recall CTL responses of PBMCs from ovarian cancer patients; assay type: cell-based, human; conditions: for recognition by CTLs from cancer patient PBMCs: two patients with ovarian cancer, peptide-pulsed targets and transfected cells; for CTL Tumor / CTL Wildtype: data from ovarian cancer patients
HLA-A*0301 = HLA-A*0301 (Homo sapiens, UniProt P04439); assay type: binding; conditions: Table XXIII, HLA-A3 supermotif-bearing peptides
HLA-A*1101 = HLA-A*1101 (Homo sapiens, UniProt P04439, A114D/D185E/E176A/F33Y/L180Q/S129P/T187R); assay type: binding; conditions: Table XXIII, HLA-A3 supermotif-bearing peptides
HLA-A*3101 = HLA-A*3101 (Homo sapiens, UniProt P04439, A270S/D185E/E176V/E277Q/F33T/G231S/G80R/H175R/I121M/I218V/I322F/K168Q/L300P/L318F/M331R/P217A/Q94H/R138Q/T323A/T345S/T97I/V358M); assay type: binding; conditions: Table XXIII, HLA-A3 supermotif-bearing peptides
HLA-A*3301 = HLA-A*3301 (Homo sapiens, UniProt P04439, A270S/D185E/E176V/E277Q/E87N/F33T/G231S/H175R/I121M/I218V/I322F/K168Q/K210R/L300P/L318F/M331R/P217A/Q86R/Q94H/R138Q/T323A/T345S/T97I/V358M/Y195H); assay type: binding; conditions: Table XXIII, HLA-A3 supermotif-bearing peptides
HLA-A*6801 = HLA-A*6801 (Homo sapiens, UniProt P04439, A269V/D185E/E176V/E277Q/E87N/F33Y/G231S/I121M/I166T/I218V/L180W/L300P/L318F/N151K/P208A/P217A/Q86R/R169H/T345S); assay type: binding; conditions: Table XXIII, HLA-A3 supermotif-bearing peptides
[2] = test system: A3-supertype alleles (A*0301, A*1101, A*3101, A*3301, A*6801); test: A3-supertype cross-reactive binding; parameters: species or system human; conditions: of five A3-supertype alleles tested

Sequence of HLA-A*1101 (P04439 25-365 limits assumed, stated change not applied): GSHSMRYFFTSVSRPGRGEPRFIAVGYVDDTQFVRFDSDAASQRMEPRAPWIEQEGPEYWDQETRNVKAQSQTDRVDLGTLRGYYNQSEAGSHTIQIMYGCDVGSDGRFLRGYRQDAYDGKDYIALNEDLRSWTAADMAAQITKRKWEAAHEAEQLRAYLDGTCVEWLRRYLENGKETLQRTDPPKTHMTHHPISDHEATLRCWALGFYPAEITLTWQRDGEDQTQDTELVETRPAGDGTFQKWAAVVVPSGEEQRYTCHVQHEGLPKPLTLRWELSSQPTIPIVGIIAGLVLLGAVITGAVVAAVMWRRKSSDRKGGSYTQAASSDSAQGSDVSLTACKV

| IC50 (HLA-A*0301) [nM] | IC50 (HLA-A*1101) [nM] | IC50 (HLA-A*3101) [nM] | IC50 (HLA-A*3301) [nM] | IC50 (HLA-A*6801) [nM] | Compound | recognition by CTLs from cancer patient PBMCs [1] | other results |
| --- | --- | --- | --- | --- | --- | --- | --- |
|  |  |  |  |  | CC[C@H](C)[C@H](N)C(=O)N[C@@H](CC(C)C)C(=O)N[C@@H](Cc1c[nH]cn1)C(=O)N[C@@H](CC(N)=O)C(=O)NCC(=O)N[C@@H](C)C(=O)N[C@@H](Cc1ccc(O)cc1)C(=O)N[C@@H](CO)C(=O)N[C@@H](CC(C)C)C(=O)O [Her2/neu.435] | recognized in 2 donors |  |
| 8460 | 286 | 600 | 76 | 42 | CC[C@H](C)[C@H](NC(=O)[C@H](CC(=O)O)NC(=O)[C@H](CCCCN)NC(=O)[C@H](Cc1c[nH]c2ccccc12)NC(=O)[C@H](CC(C)C)NC(=O)[C@@H](NC(=O)[C@@H](N)[C@@H](C)O)C(C)C)C(=O)N[C@@H](Cc1ccccc1)C(=O)N[C@@H](Cc1c[nH]cn1)C(=O)N[C@@H](CCCNC(=N)N)C(=O)O [Her2/neu.166.V2R10] |  |  |
|  |  |  |  |  | CC(C)C[C@H](NC(=O)[C@@H](N)Cc1c[nH]cn1)C(=O)N[C@@H](Cc1ccc(O)cc1)C(=O)N[C@@H](CCC(N)=O)C(=O)NCC(=O)N[C@@H](CS)C(=O)N[C@@H](CCC(N)=O)C(=O)N[C@H](C(=O)N[C@H](C(=O)O)C(C)C)C(C)C [Her2/neu.48] | recognized in 2 donors |  |
| 143 | 286 | 6 | 16 | 15 | CC[C@H](C)[C@H](N)C(=O)N[C@H](C(=O)N[C@@H](Cc1c[nH]c2ccccc12)C(=O)N[C@@H](CCCCN)C(=O)N[C@@H](CC(=O)O)C(=O)N[C@H](C(=O)N[C@@H](Cc1ccccc1)C(=O)N[C@@H](Cc1c[nH]cn1)C(=O)N[C@@H](CCCNC(=N)N)C(=O)O)[C@@H](C)CC)C(C)C [Her2/neu.167.V2R9] |  |  |
| 256 | 1.7 | 487 | 690 | 200 | TILWKDIFHK [Her2/neu.166] |  |  |
|  |  |  |  |  | CC(C)C[C@H](NC(=O)[C@H](CCC(N)=O)NC(=O)[C@@H](NC(=O)[C@@H](NC(=O)[C@H](CO)NC(=O)[C@@H](NC(=O)[C@H](CC(C)C)NC(=O)[C@@H](N)CS)[C@@H](C)O)[C@@H](C)O)C(C)C)C(=O)N[C@H](C(=O)O)C(C)C [Her2/neu.789] | recognized peptide-pulsed targets only |  |
|  |  |  |  |  | CSCC[C@H](NC(=O)[C@@H](N)C(C)C)C(=O)N[C@@H](C)C(=O)NCC(=O)N[C@H](C(=O)NCC(=O)N[C@@H](CO)C(=O)N1CCC[C@H]1C(=O)N[C@@H](Cc1ccc(O)cc1)C(=O)N[C@H](C(=O)O)C(C)C)C(C)C [Her2/neu.773] | recognized by CTLs from only one of the two patients |  |
|  |  |  |  |  | CC(C)C[C@H](NC(=O)[C@H](CC(C)C)NC(=O)[C@@H](N)CCCNC(=N)N)C(=O)N[C@@H](CCC(N)=O)C(=O)N[C@@H](CCC(=O)O)C(=O)N[C@H](C(=O)N[C@@H](CCC(=O)O)C(=O)N[C@@H](CC(C)C)C(=O)N[C@H](C(=O)O)C(C)C)[C@@H](C)O [Her2/neu.689] | is also an epitope |  |
| 234 |  | 11 | 193 | 7.3 | CC[C@H](C)[C@H](N)C(=O)N[C@H](C(=O)N[C@@H](Cc1c[nH]c2ccccc12)C(=O)N[C@@H](CC(C)C)C(=O)NCC(=O)N[C@@H](CC(C)C)C(=O)N[C@@H](CCCNC(=N)N)C(=O)N[C@@H](CO)C(=O)N[C@@H](CC(C)C)C(=O)N[C@@H](CCCNC(=N)N)C(=O)O)C(C)C [Her2/neu.450.V2] |  | No. of A3 Alleles Crossbound [2]: 4 |
|  | 88 | 30000 | 2640 | 73 | CC(C)C[C@H](NC(=O)[C@@H]1CCCN1C(=O)[C@@H](NC(=O)[C@H](C)N)C(C)C)C(=O)N[C@@H](CC(=O)O)C(=O)N[C@@H](CO)C(=O)N[C@H](C(=O)N[C@@H](Cc1ccccc1)C(=O)N[C@@H](Cc1ccc(O)cc1)C(=O)N[C@@H](CCCNC(=N)N)C(=O)O)[C@@H](C)O [Her2/neu.997.V2] |  | No. of A3 Alleles Crossbound [2]: 2 |
| 55 | 462 | 667 | 6170 | > 10000 | CC[C@H](C)[C@H](NC(=O)[C@H](CCC(=O)O)NC(=O)[C@@H](NC(=O)[C@H](CC(C)C)NC(=O)[C@H](CO)NC(=O)[C@H](CCCNC(=N)N)NC(=O)[C@H](CC(C)C)NC(=O)[C@@H](N)CCC(N)=O)[C@@H](C)O)C(=O)N[C@@H](CC(C)C)C(=O)N[C@@H](CCCCN)C(=O)O [Her2/neu.141] |  |  |
|  |  |  |  |  | CC[C@H](C)[C@H](N)C(=O)N[C@@H](CC(C)C)C(=O)N[C@@H](Cc1c[nH]cn1)C(=O)N[C@@H](CC(N)=O)C(=O)NCC(=O)N[C@@H](C)C(=O)N[C@@H](Cc1ccc(O)cc1)C(=O)N[C@@H](CO)C(=O)N[C@@H](CC(C)C)C(=O)O |  | CTL Tumor [1]: 2/2; CTL Wildtype [1]: 2/2 |
|  |  |  |  |  | CC(C)C[C@H](NC(=O)[C@@H](N)Cc1c[nH]cn1)C(=O)N[C@@H](Cc1ccc(O)cc1)C(=O)N[C@@H](CCC(N)=O)C(=O)NCC(=O)N[C@@H](CS)C(=O)N[C@@H](CCC(N)=O)C(=O)N[C@H](C(=O)N[C@H](C(=O)O)C(C)C)C(C)C |  | CTL Tumor [1]: 1/2; CTL Wildtype [1]: 2/2 |
| 39 | 19 | 82 | 967 | 1740 | CC[C@H](C)[C@H](N)C(=O)N[C@@H](CC(C)C)C(=O)N[C@@H](Cc1c[nH]c2ccccc12)C(=O)N[C@@H](CCCCN)C(=O)N[C@@H](CC(=O)O)C(=O)N[C@H](C(=O)N[C@@H](Cc1ccccc1)C(=O)N[C@@H](Cc1c[nH]cn1)C(=O)N[C@@H](CCCCN)C(=O)O)[C@@H](C)CC [Her2/neu.167] |  |  |
| 7330 | 1330 |  | 193 | 3.6 | HVVPWDQLFR [Her2/neu.478.V2] |  | No. of A3 Alleles Crossbound [2]: 3 |
| 23 | 40 | 247 | 853 | 178 | CC[C@H](C)[C@H](N)C(=O)N[C@H](C(=O)N[C@@H](Cc1c[nH]c2ccccc12)C(=O)N[C@@H](CCCCN)C(=O)N[C@@H](CC(=O)O)C(=O)N[C@H](C(=O)N[C@@H](Cc1ccccc1)C(=O)N[C@@H](Cc1c[nH]cn1)C(=O)N[C@@H](CCCCN)C(=O)O)[C@@H](C)CC)C(C)C [Her2/neu.167.V2] |  |  |
|  |  |  |  |  | CC[C@H](C)[C@H](NC(=O)[C@@H](N)CCCCN)C(=O)N[C@@H](Cc1ccccc1)C(=O)NCC(=O)N[C@@H](CO)C(=O)N[C@@H](CC(C)C)C(=O)N[C@@H](C)C(=O)N[C@@H](Cc1ccccc1)C(=O)N[C@@H](CC(C)C)C(=O)O [Her2/neu.369] | recognized in 2 donors |  |
|  |  |  |  |  | CSCC[C@H](NC(=O)[C@@H](N)C(C)C)C(=O)N[C@@H](C)C(=O)NCC(=O)N[C@H](C(=O)NCC(=O)N[C@@H](CO)C(=O)N1CCC[C@H]1C(=O)N[C@@H](Cc1ccc(O)cc1)C(=O)N[C@H](C(=O)O)C(C)C)C(C)C |  | CTL Tumor [1]: 1/2; CTL Wildtype [1]: 1/2 |
|  |  |  |  |  | CC[C@H](C)[C@H](NC(=O)[C@H](CC(C)C)NC(=O)[C@@H](N)C(C)C)C(=O)N[C@@H](CCC(N)=O)C(=O)N[C@@H](CCCNC(=N)N)C(=O)N[C@@H](CC(N)=O)C(=O)N1CCC[C@H]1C(=O)N[C@@H](CCC(N)=O)C(=O)N[C@@H](CC(C)C)C(=O)O [Her2/neu.153] | recognized peptide-pulsed targets only |  |
|  |  |  |  |  | CC[C@H](C)[C@H](NC(=O)CNC(=O)[C@H](Cc1ccccc1)NC(=O)[C@@H](NC(=O)[C@@H](NC(=O)CNC(=O)[C@H](CC(C)C)NC(=O)[C@@H](NC(=O)[C@@H](N)C(C)C)C(C)C)C(C)C)C(C)C)C(=O)O [Her2/neu.665] | recognized by CTLs from only one of the two patients |  |
